Results on two molecules are retold here after article PMC8395040 (International Journal of Molecular Sciences, 2021).

Some results are limits rather than exact numbers.

One data set relates to HCT116. As to the kind of experiment: MTT cytotoxicity assay, HCT116. It is filed as cell-based. The settings on record: Homo sapiens, HCT-116, 72 h, MTT; for cytotoxicity at 50 µM: read-out: % Cytotoxicity (50 µM) HCT116; for IC50: 0.05–50 µM. As for the experimental part: (§1) Cytotoxicity assays were performed by using the MTT reduction method as described previously. Briefly, cancer cell lines were plated in flat-bottom 96-well plates at a cell concentration of 5 × 10^3 cells/well for the fastest growing lines, such as HEK293 and HT29 cells and 1 × 10^4 cells/well for more slowly growing lines, such as HCT116, H1975, BxPC-3, AsPC-1, B16-F10 and DAOY. Then, cells were incubated with the synthesised compounds at different concentrations (from 0.05 to 50 µM) in 200 µL with 10% FBS in RPMI 1640 or DMEM F12 culture medium at 37 °C for 72 h. Later, 10 µL of MTT were added at a final concentration of 0.5 mg/mL, incubated at 37 °C for 4 h, and then solubilised with 10% sodium dodecyl sulphate (SDS) in 0.1 mM HCl and incubated overnight at 37 °C. Formazan formation was measured at 570 nm in a multiwell plate reader (Cytation 5, Biotek Instruments, Winooski, VT, USA). Three independent biological replicates were performed.
Background: Tetrazolium dyes change colour on reduction, which living cells bring about.

For a further data set, the system named is HT29 cells. Kind of data set: Annexin V-FITC/PI assay, HT29. The data set is classed as cell-based, human. The note with it: for early apoptosis (II): 19 µM, 3 or 12 h, untreated control 2.7%. As for the experimental part:
HT29 cells were seeded in a 12-well plate (5 × 10^5 cells per well) and incubated overnight in DMEM F12. […] The cells were collected and then processed for apoptosis analysis using the Annexin-V/PI Alexa Fluor 488 Apoptosis Kit (Invitrogen, Waltham, MA, USA) according to the manufacturer’s instructions. Finally, cells were analysed by flow cytometry (BD; FACS Canto II, Mountain View, CA, USA) and data were processed using the FCS Express v6 software. Three independent replicates were performed.

For data set [1], the system named is GLI1-responsive luciferase reporter in HCT116 cells. Kind of data set: HH-dependent GLI luciferase reporter assay in HCT116. It is filed as cell-based, human. The settings on record: 24 h, 4s 1.5 µM, vismodegib 1 µM; for activation induced by the agonist purmorphamine: purmorphamine 20 µM. As for the experimental part:
Luciferase and renilla activity were assayed with a dual-luciferase assay system according to the manufacturer’s instructions (Cignal Reporter Gli-luciferase, ADN, Qiagen, Hilden, Germany). Results were expressed as luciferase/renilla ratios and represent the mean of triplicate values in one assay.
Supplemental Figure S2: Luciferase reporter activity dependent on the Hh pathway.
This assay was performed in HCT116 cells stably transformed with a Gli responsive luciferase reporter gene and a renilla luciferase gene (normalization control), treated for 24 […]
renilla activity were assayed with the dual-luciferase assay system Cignal Reporter Gli - luciferase (ADN, Qiagen). Results are expressed as luciferase/renilla activity ratios and represent the mean of triplicate values from one assay. […]
(1 picture or pasted object on this page, not shown here)

For a further data set, the system named is H1975. Kind of data set: MTT cytotoxicity assay, H1975. It is filed as cell-based. The note with it: Homo sapiens, NCI-H1975, 72 h, MTT; for cytotoxicity at 50 µM: read-out: % Cytotoxicity (50 µM) H1975; for IC50: 0.05–50 µM. As for the experimental part: as §1
For the next data set, the system named is B16F10 cells. As to the kind of experiment: MTS viability assay, B16F10. It is filed as cell-based, murine. The note with it: Mus musculus, B16-F10, 24 h. As for the experimental part: In the case of experiments using nanoemulsions, cell proliferation was evaluated after treatments. To do this the complete medium containing treatments was removed and replaced with fresh culture medium supplemented with 10% tetrazolium compound of the MTS® assay (CellTiter 96® Aqueous Non-Radioactive Cell Proliferation Assay), according to the manufacturer’s instructions (Promega, Madison, WI, USA). The soluble formazan produced by live cells was detected as absorbance at 490 nm on a Multiscan Reader (Synergy-H4, Biotek). Background values contributed by excess of cell debris and bubbles were measured at 650 nm and were subtracted.
Figure 7 Effect of 4s-NEM on the viability of cancer (B16F10) and non-cancer (HEK293) cells in vitro. Cells were treated with 4s-NEM at different concentrations for 24 h and their viability was evaluated using the MTS assay; SDS, the vehicle for NEM, and 4s free in the culture medium were used as controls. The IC50 was determined in each case. (A) Effect of 4s-NEM on B16F10 cells. Six independent experiments were performed in triplicate. Results are shown as the mean ± SEM. (B) Effect of 4s-NEM on HEK293 cells. Results are shown as the mean ± SEM of three separate experiments. (***) p < 0.001, (*) p < 0.05 vs. control, ns = non-significant. Data analysis was performed via a 2-way ANOVA Tukey’s multiple comparisons test.

For another data set, the system named is tumour cell lines. As to the kind of experiment: MTT cytotoxicity assay, summary over the tumour cell line panel. It is filed as cell-based, human. As for the experimental part:
as §1

The subject of another data set is HEK293. Kind of data set: Cell cycle analysis (PI, flow cytometry), HEK293. The note with it: 19 µM, 24 h. It is filed as cell-based, human. As for the experimental part: HT29 and HEK293 cells were plated in 6-well plates at a density of 2.0 × 10^5 cells/1.5 mL/well and grown overnight at 37 °C in a 5% CO2 humidified atmosphere. […] Aliquots of cells were collected, pelleted, washed, and fixed with ethanol (70% v/v) for at least 30 min at 4 °C. Cells were resuspended twice in PBS and, after centrifugation and elimination of the supernatant, they were finally resuspended in a PBS solution containing propidium iodide (PI; […], Invitrogen), RNase A ([…], Invitrogen). After a final incubation for 1 h in the dark at 37 °C, the PI signal was measured using a FACS Canto II Flow-cytometer (BD; Mountain View, CA) with a 488 nm excitation laser, captured and FACS DIVA was used as the acquisition software. The percentage of cells in each phase was analysed using the FCS Express v6 software. Two independent biological replicates were performed.
On the technique in general: Flow cytometry measures light scatter and fluorescence of single cells or particles in a stream.

For another data set, the system named is pancreatic cancer cells. Further details: method as in PMID 28490735. The note with it: cited from earlier work.
For the next data set, the system named is HT29. As to the kind of experiment: Colony formation assay, HT29. The data set is classed as cell-based, human. The note with it: 5 µM, 14 d. As for the experimental part: HT29, HCT116, H1975 and HEK293 cells were seeded in a 6-well plate (1 × 10^4 cells per well) and incubated overnight in DMEM F12 supplemented with 10% FBS. […] After 72 h, the medium was replaced by fresh medium without stimuli, and cells were incubated for an additional 14 d to permit colony formation. The cells were fixed during 30 min with PFA 4% (v/v), washed and stained for 30 min at RT with a 5% solution of violet crystal for final colony counting. Three independent replicates were performed.

By melting point is commonly meant the temperature of the solid-liquid transition. The term IC50 denotes the midpoint of a concentration-inhibition curve. For `CCCCCCn1cnc2c(-c3ccc(OC(F)(F)F)cc3)nc(N3CCN(c4ccncc4)CC3)nc21` [Compound 4s, 9-Hexyl-2-(4-(pyridin-4-yl)piperazin-1-yl)-6-(4-(trifluoromethoxy)phenyl)-9H-purine], the melting point is 153 to 155 °C. In the data set with HCT116, the cytotoxicity at 50 µM is 99 ± 0.4% and the IC50 was found to be 1.3 ± 0.4 µM. For the same molecule, the “early apoptosis (II)” value with HT29 cells is recorded as 64.6%. Further, the viability at 19 µM in the data set on HT29 cells (Homo sapiens, HT-29, 3 or 12 h, control around 95.7%, read-out: cell viability (Annexin V-FITC/PI)) is around 33.8%. Further, in data set [1], the “basal GLI1 transcription activity” value is “did not affect basal GLI1 transcription activity” and the “activation induced by the agonist purmorphamine” value is listed as “effectively reduced the activation”. Also, in the data set with H1975, the cytotoxicity at 50 µM was 99 ± 0.2% and it took 1.5 ± 0.3 µM to reach half-maximal inhibition (IC50). The IC50 with B16F10 cells amounted to 27.5 µM. Besides, the “selectivity for cancer cells compared to HEK293 control cells” value in the data set on tumour cell lines was determined as 40 times. In addition, the “cytotoxicity in tumour cell lines” value in the data set with tumour cell lines (50 µM, 72 h, MTT, tumour cell lines tested) was “more than 80%”. Moreover, the IC50 with tumour cell lines (Homo sapiens, depending on the tumour cell line, 72 h, read-out: IC50 range over tumour cell lines) was 1.3 to 15 µM. Also, in the data set with tumour cell lines (from IC50 values), the “fold increase in cytotoxicity compared to vismodegib” value is reported as around 40 fold. For the same molecule, in the data set with HEK293, the “changes in cell cycle, HEK293” value is “did not observe any changes”.

On to `CS(=O)(=O)c1ccc(C(=O)Nc2ccc(Cl)c(-c3ccccn3)c2)c(Cl)c1` [Vismodegib, reference compound], for which, in the data set on pancreatic cancer cells, the “concentration inducing apoptosis in pancreatic cancer cells” value is listed as “greater than 100 µM”. Besides, in the data set with HCT116, the cytotoxicity at 50 µM is below 50% and the IC50 is above 50 µM. Also, the “colony formation HT-29” value in the data set on HT29 is reported as “less effective than 4s”. In the data set with HT29 cells, the “early apoptosis (II)” value is reported as “no statistically significant differences”. Further, in data set [1], the “basal GLI1 transcription activity” value is recorded as “did not affect basal GLI1 transcription activity” and the “activation induced by the agonist purmorphamine” value is on record as “effectively reduced the activation”. Also, in the data set on H1975, the cytotoxicity at 50 µM was determined as 53 ± 1.2% and the IC50 was above 50 µM.
